From ChEMBL document CHEMBL4840335, “Rational Design and Development of Novel CDK9 Inhibitors for the Treatment of Acute Myeloid Leukemia” (J Med Chem, 2021)
pIC50: −log10 of the molar value. Active and inactive are the calls of the source. The calls are words filed in the database; no cut-off is given here.

What was measured:
CDK9/cyclin T1 = CDK9/cyclin T1 (Homo sapiens, UniProt P50750); experiment: Inhibition of CDK9/cyclin T1 (unknown origin) incubated for 2 hrs in presence of ATP by FRET based LANCE assay; assay type: protein-complex assay
Chain of CDK9/cyclin T1 (O60563 whole entry): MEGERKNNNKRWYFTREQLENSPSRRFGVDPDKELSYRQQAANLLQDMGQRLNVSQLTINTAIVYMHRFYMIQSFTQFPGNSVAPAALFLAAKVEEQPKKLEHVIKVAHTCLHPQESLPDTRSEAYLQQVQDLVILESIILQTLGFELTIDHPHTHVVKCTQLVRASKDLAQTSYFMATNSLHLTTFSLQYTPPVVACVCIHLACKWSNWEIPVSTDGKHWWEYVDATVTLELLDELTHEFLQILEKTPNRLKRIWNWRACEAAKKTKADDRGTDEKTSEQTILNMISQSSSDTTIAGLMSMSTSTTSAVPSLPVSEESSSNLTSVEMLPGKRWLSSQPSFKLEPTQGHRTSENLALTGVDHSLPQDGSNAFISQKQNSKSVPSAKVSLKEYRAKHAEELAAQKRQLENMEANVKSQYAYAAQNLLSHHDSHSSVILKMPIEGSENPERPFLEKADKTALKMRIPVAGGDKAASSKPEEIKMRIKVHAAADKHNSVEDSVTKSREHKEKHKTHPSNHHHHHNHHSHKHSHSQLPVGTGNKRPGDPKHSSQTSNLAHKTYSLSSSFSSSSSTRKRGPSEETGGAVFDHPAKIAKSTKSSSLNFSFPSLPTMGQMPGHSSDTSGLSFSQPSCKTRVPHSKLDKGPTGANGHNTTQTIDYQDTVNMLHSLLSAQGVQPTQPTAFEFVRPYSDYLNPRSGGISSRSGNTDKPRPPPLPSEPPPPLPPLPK
Chain of CDK9/cyclin T1 (P50750 whole entry): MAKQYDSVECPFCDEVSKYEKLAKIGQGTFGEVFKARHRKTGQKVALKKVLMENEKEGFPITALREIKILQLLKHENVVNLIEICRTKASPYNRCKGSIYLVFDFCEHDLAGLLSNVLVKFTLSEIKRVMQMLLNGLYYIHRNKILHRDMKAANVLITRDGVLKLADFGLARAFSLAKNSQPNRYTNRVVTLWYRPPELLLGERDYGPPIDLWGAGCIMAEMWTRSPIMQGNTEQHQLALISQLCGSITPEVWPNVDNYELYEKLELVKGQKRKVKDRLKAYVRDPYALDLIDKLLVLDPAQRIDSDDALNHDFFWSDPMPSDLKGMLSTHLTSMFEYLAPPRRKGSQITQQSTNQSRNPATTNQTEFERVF

[1] = molecular target: Cyclin-dependent kinase 6 (Homo sapiens, UniProt Q00534); experiment: Inhibition of CDK6 (unknown origin)
Chain of Cyclin-dependent kinase 6 (Q00534 whole entry): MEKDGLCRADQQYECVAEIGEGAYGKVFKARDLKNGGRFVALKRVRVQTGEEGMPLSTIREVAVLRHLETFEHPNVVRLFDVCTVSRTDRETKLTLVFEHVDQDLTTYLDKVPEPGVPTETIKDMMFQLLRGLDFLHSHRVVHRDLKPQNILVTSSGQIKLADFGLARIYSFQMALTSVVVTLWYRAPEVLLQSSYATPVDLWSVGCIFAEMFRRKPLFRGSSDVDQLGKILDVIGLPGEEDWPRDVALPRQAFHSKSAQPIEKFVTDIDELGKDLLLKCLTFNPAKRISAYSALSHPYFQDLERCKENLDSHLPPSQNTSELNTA

[2] = molecular target: Cyclin-dependent kinase 7 (Homo sapiens, UniProt P50613); experiment: Inhibition of CDK7 (unknown origin)
Chain of Cyclin-dependent kinase 7 (P50613 whole entry): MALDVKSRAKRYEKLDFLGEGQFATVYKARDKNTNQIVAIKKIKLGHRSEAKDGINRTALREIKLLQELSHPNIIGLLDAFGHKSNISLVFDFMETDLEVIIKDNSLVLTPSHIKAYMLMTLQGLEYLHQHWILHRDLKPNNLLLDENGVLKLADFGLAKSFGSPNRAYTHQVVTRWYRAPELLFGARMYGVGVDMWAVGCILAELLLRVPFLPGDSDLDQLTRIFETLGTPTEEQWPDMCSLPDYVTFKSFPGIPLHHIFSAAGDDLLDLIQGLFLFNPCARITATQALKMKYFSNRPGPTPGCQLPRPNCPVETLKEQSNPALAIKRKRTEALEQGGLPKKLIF

[3] = molecular target: Cyclin-dependent kinase 4 (Homo sapiens, UniProt P11802); experiment: Inhibition of CDK4 (unknown origin)
Chain of Cyclin-dependent kinase 4 (P11802 whole entry): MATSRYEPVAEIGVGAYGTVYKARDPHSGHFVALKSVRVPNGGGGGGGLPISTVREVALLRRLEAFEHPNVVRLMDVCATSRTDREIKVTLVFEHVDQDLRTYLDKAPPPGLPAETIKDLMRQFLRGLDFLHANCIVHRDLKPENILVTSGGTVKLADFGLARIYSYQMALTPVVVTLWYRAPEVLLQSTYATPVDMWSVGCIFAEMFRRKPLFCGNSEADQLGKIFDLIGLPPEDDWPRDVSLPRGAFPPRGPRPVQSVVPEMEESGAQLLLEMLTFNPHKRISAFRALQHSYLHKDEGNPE

[4] = molecular target: Cyclin-dependent kinase 2 (Homo sapiens, UniProt P24941); experiment: Inhibition of CDK2 (unknown origin)
[5] = molecular target: CDK9/cyclin T1 (Homo sapiens) (UniProt O60563+P50750); experiment: Inhibition of CDK9/cyclin T1 (unknown origin) at 10 uM incubated for 2 hrs in presence of ATP by FRET based LANCE assay relative to control; assay type: protein-complex assay
Z-138 = experiment: Antiproliferative activity against human Z138 cells assessed as reduction in cell proliferation measured after 3 to 7 days by MTS assay; assay type: functional, cell-based
RPMI-8226 = experiment: Antiproliferative activity against human RPMI-8226 cells assessed as reduction in cell proliferation measured after 3 to 7 days by MTS assay; assay type: functional, cell-based
MV4-11 [6] = experiment: Induction of apoptosis in human MV4-11 cells assessed as late apoptotic cells at 10 nM measured after 24 hrs by annexinV-FITC/propidium iodide staining based flow cytometry (reference value: 3.04 %); assay type: functional
MV4-11 [7] = experiment: Induction of apoptosis in human MV4-11 cells assessed as activation of cleaved PARP at 5 to 50 nM measured after 24 hrs by Western blot analysis; assay type: functional, cell-based; settings: dose 5-50 nM
TMD8 = experiment: Antiproliferative activity against human TMD8 cells assessed as reduction in cell proliferation measured after 3 to 7 days by MTS assay; assay type: functional, cell-based
MV4-11 [8] = experiment: Induction of apoptosis in human MV4-11 cells assessed as live cells at 10 nM measured after 24 hrs by annexinV-FITC/propidium iodide staining based flow cytometry (reference value: 95.14 %); assay type: functional
MM1.S = experiment: Antiproliferative activity against human MM1.S cells assessed as reduction in cell proliferation measured after 3 to 7 days by MTS assay; assay type: functional, cell-based
Kasumi 1 = experiment: Antiproliferative activity against human Kasumi 1 cells assessed as reduction in cell proliferation measured after 3 to 7 days by MTS assay; assay type: functional, cell-based
MV4-11 [9] = experiment: Induction of apoptosis in human MV4-11 cells assessed as live cells at 50 nM measured after 24 hrs by annexinV-FITC/propidium iodide staining based flow cytometry (reference value: 95.14 %); assay type: functional
MV4-11 [10] = experiment: Induction of apoptosis in human MV4-11 cells assessed as necrotic cells at 10 nM measured after 24 hrs by annexinV-FITC/propidium iodide staining based flow cytometry (reference value: 1.03 %); assay type: functional
JeKo-1 = experiment: Antiproliferative activity against human JeKo-1 cells assessed as reduction in cell proliferation measured after 3 to 7 days by MTS assay; assay type: functional, cell-based
MV4-11 [11] = experiment: Induction of apoptosis in human MV4-11 cells assessed as activation of caspase-3 at 5 to 50 nM measured after 24 hrs by Western blot analysis; assay type: functional, cell-based; settings: dose 5-50 nM
MV4-11 [12] = experiment: Induction of apoptosis in human MV4-11 cells assessed as late apoptotic cells at 50 nM measured after 24 hrs by annexinV-FITC/propidium iodide staining based flow cytometry (reference value: 3.04 %); assay type: functional
OCI-Ly10 = experiment: Antiproliferative activity against human OCILY10 cells assessed as reduction in cell proliferation measured after 3 to 7 days by MTS assay; assay type: functional, cell-based
MV4-11 [13] = experiment: Antiproliferative activity against human MV4-11 cells assessed as reduction in cell proliferation measured after 3 to 7 days by MTS assay; assay type: functional, cell-based
[14] = Antiproliferative activity against human MINO cells assessed as reduction in cell proliferation measured after 3 to 7 days by MTS assay; assay type: functional, cell-based
MV4-11 [15] = experiment: Induction of apoptosis in human MV4-11 cells assessed as necrotic cells at 50 nM measured after 24 hrs by annexinV-FITC/propidium iodide staining based flow cytometry (reference value: 1.03 %); assay type: functional
MV4-11 [16] = experiment: Induction of apoptosis in human MV4-11 cells assessed as early apoptotic cells at 50 nM measured after 24 hrs by annexinV-FITC/propidium iodide staining based flow cytometry (reference value: 0.79 %); assay type: functional
MV4-11 [17] = experiment: Induction of apoptosis in human MV4-11 cells assessed as early apoptotic cells at 10 nM measured after 24 hrs by annexinV-FITC/propidium iodide staining based flow cytometry (reference value: 0.79 %); assay type: functional
CCRF-CEM = experiment: Antiproliferative activity against human CCRF-CEM cells assessed as reduction in cell proliferation measured after 3 to 7 days by MTS assay; assay type: functional, cell-based
Raji = experiment: Antiproliferative activity against human Raji cells assessed as reduction in cell proliferation measured after 3 to 7 days by MTS assay; assay type: functional, cell-based
HL-60 = experiment: Antiproliferative activity against human HL-60 cells assessed as reduction in cell proliferation measured after 3 to 7 days by MTS assay; assay type: functional, cell-based

With `OC[C@H](Nc1cncc(-c2ccc3[nH]ncc3c2)n1)c1ccccc1` as the compound, how does the pIC50 (CDK9/cyclin T1) read?
The pIC50 was 7.37.

With `Cc1n[nH]c2ccc(-c3cncc(NC(CO)c4cccc(OC(F)(F)F)c4)n3)cc12` (racemic) as the compound, how does the pIC50 (CDK9/cyclin T1) read?
Its pIC50 is 6.20.

With `Cc1n[nH]c2ccc(-c3cncc(N[C@H](C)c4ccccc4)n3)cc12` as the compound, how does the pIC50 (CDK9/cyclin T1) read?
Its pIC50 is 6.05.

With `Cc1n[nH]c2ccc(-c3cncc(N[C@@H](CO)c4cccc(F)c4)n3)cc12` as the compound, how does the pIC50 [1] read?
Its pIC50 is under 6.00.

And the pIC50 [2]?
The pIC50 was 6.30.

And the pIC50 [3]?
Its pIC50 is under 6.00.

What about the pIC50 (CDK9/cyclin T1) of the same compound?
The pIC50 was 8.04.

What about the pIC50 [4] of the same compound?
The pIC50 was 7.46.

For `O=C1Cc2cc(-c3cncc(NC(CO)c4ccccc4)n3)ccc2N1` (centres undefined), which inhibition [5] is on record?
The inhibition was 31.4%.

With `OCC(Nc1cncc(-c2ccc3occc3c2)n1)c1ccccc1` (centres undefined) as the compound, how does the pIC50 (CDK9/cyclin T1) read?
Its pIC50 is 5.05.

With `Cc1n[nH]c2ccc(-c3cncc(NC4CCCC(O)C4)n3)cc12` (centres undefined) as the compound, how does the pIC50 [1] read?
The pIC50 was under 6.00.

What about the pIC50 [2] of the same compound?
The pIC50 was 6.49.

What about the pIC50 [3] of the same compound?
Its pIC50 is under 6.00.

And the pIC50 (CDK9/cyclin T1)?
Its pIC50 is 6.19.

And the pIC50 [4]?
The pIC50 was 7.28.

With `Cc1n[nH]c2ccc(-c3cncc(NC(C)CO)n3)cc12` (centres undefined) as the compound, how does the pIC50 (CDK9/cyclin T1) read?
Its pIC50 is 6.00.

With `Cc1n[nH]c2ccc(-c3cncc(NC(CO)c4cccc(C(F)(F)F)c4)n3)cc12` (racemic) as the compound, how does the pIC50 (CDK9/cyclin T1) read?
The pIC50 was 6.47.

With `Cc1n[nH]c2ccc(-c3cncc(N[C@@H](CO)c4ccccc4)n3)cc12` as the compound, how does the pIC50 [1] read?
The pIC50 was under 6.00.

What about the pIC50 [2] of the same compound?
The pIC50 was under 6.00.

What about the pIC50 [3] of the same compound?
Its pIC50 is under 6.00.

And the pIC50 (CDK9/cyclin T1)?
Its pIC50 is 8.22.

What about the pIC50 [4] of the same compound?
Its pIC50 is 7.17.

With `Cc1n[nH]c2ncc(-c3cc(N[C@@H](CO)c4ccccc4)cnc3Cl)cc12` as the compound, how does the pIC50 [1] read?
The pIC50 was under 6.00.

What about the pIC50 [2] of the same compound?
Its pIC50 is under 6.00.

And the pIC50 [3]?
Its pIC50 is under 6.00.

What about the pIC50 (CDK9/cyclin T1) of the same compound?
Its pIC50 is 7.68.

What about the pIC50 [4] of the same compound?
Its pIC50 is under 6.00.

With `Cc1n[nH]c2ccc(-c3cncc(NC(CO)c4ccccc4F)n3)cc12` (racemic) as the compound, how does the pIC50 (CDK9/cyclin T1) read?
The pIC50 was 7.62.

Which inhibition [5] does the source give for `OCC(Nc1cncc(-c2ccc3nccnc3c2)n1)c1ccccc1` (centres undefined) here?
Its inhibition is 2.63%.

With `Cc1n[nH]c2ccc(-c3cncc(NC(CO)c4ccccc4)n3)cc12` (racemic) as the compound, how does the pIC50 [1] read?
The pIC50 was under 6.00.

And the pIC50 [2]?
The pIC50 was under 6.00.

What about the pIC50 [3] of the same compound?
The pIC50 was under 6.00.

What about the pIC50 (CDK9/cyclin T1) of the same compound?
Its pIC50 is 7.85.

What about the pIC50 [4] of the same compound?
The pIC50 was 6.83.

With `O=c1[nH]c2ccc(-c3cncc(NC(CO)c4ccccc4)n3)cc2[nH]1` (centres undefined) as the compound, how does the inhibition [5] read?
The inhibition was 0.61%.

With `Cc1n[nH]c2ccc(-c3cncc(N[C@H](CO)c4ccccc4)n3)cc12` as the compound, how does the pIC50 (CDK9/cyclin T1) read?
Its pIC50 is 5.06.

For `Cc1nc2c(F)cc(-c3cncc(NC(CO)c4ccccc4)n3)cc2n1C(C)C` (centres undefined), which inhibition [5] is on record?
Its inhibition is 13.8%.

With `COc1ccc([C@H](CO)Nc2cncc(-c3ccc4[nH]nc(C)c4c3)n2)cc1` as the compound, how does the pIC50 (CDK9/cyclin T1) read?
The pIC50 was 6.11.

With `Cc1n[nH]c2ccc(-c3cc(N[C@@H](CO)c4ccc(F)cc4)cnc3Cl)cc12` as the compound, how does the pIC50 (CDK9/cyclin T1) read?
The pIC50 was 7.58.

With `Cc1n[nH]c2ccc(-c3cncc(N[C@@H](CO)c4ccc(F)c(F)c4)n3)cc12` as the compound, how does the pIC50 (CDK9/cyclin T1) read?
The pIC50 was 7.61.

With `Cc1n[nH]c2ccc(-c3cncc(NC(CO)c4ccc(F)c(F)c4)n3)cc12` (racemic) as the compound, how does the pIC50 (CDK9/cyclin T1) read?
Its pIC50 is 7.56.

With `Cc1n[nH]c2ccc(-c3cncc(N[C@H](C)c4ccc(F)cc4)n3)cc12` as the compound, how does the pIC50 (CDK9/cyclin T1) read?
Its pIC50 is 5.17.

With `Cc1n[nH]c2ncc(-c3cncc(N[C@@H](CO)c4ccccc4)n3)cc12` as the compound, how does the pIC50 (CDK9/cyclin T1) read?
Its pIC50 is 8.18.

With `Cc1cccc(C(CO)Nc2cncc(-c3ccc4[nH]nc(C)c4c3)n2)c1` (racemic) as the compound, how does the pIC50 (CDK9/cyclin T1) read?
Its pIC50 is 6.82.

With `Cc1n[nH]c2ccc(-c3cncc(NC(CO)c4ccc(F)cc4)n3)cc12` (racemic) as the compound, how does the pIC50 (CDK9/cyclin T1) read?
Its pIC50 is 7.30.

With `Cc1n[nH]c2ccc(-c3cncc(N[C@@H](CO)c4ccc(F)cc4)n3)cc12` as the compound, how does the pIC50 [1] read?
The pIC50 was under 6.00.

And the pIC50 [2]?
Its pIC50 is under 6.00.

And the pIC50 [3]?
Its pIC50 is under 6.00.

What about the pIC50 (CDK9/cyclin T1) of the same compound?
Its pIC50 is 7.69.

And the pIC50 [4]?
Its pIC50 is 7.25.

Which inhibition [5] does the source give for `COc1cc(F)ccc1-c1cncc(NC(CO)c2ccccc2)n1` (centres undefined) here?
The inhibition was 12.4%.

What does the source list for `COC[C@H](C)N[C@H]1CC[C@H](Nc2cc(-c3cccc(NCC4(C#N)CCOCC4)n3)c(Cl)cn2)CC1`?
pIC50 [1]: < 6.00; pIC50 (Z-138): 8.43; pIC50 (RPMI-8226): 7.85; pIC50 [2]: < 6.00; Activity (MV4-11 [6]): 15.48%; pIC50 [3]: < 6.00; pIC50 (CDK9/cyclin T1): 8.30; Activity (MV4-11 [7]): Active; pIC50 (TMD8): 7.82; Activity (MV4-11 [8]): 77.97%; pIC50 (MM1.S): 8.20; pIC50 (Kasumi 1): 8.17; Activity (MV4-11 [9]): 4.36%; Activity (MV4-11 [10]): 3.23%; pIC50 (JeKo-1): 8.00; Activity (MV4-11 [11]): Active; Activity (MV4-11 [12]): 77.18%; pIC50 (OCI-Ly10): 8.68; pIC50 (MV4-11 [13]): 8.27; pIC50 [14]: 8.28; pIC50 [4]: < 6.00; Activity (MV4-11 [15]): 16.67%; Activity (MV4-11 [16]): 1.8%; Activity (MV4-11 [17]): 3.33%; pIC50 (CCRF-CEM): 8.48; pIC50 (Raji): 7.96; pIC50 (HL-60): 8.24

With `Cc1n[nH]c2ccc(-c3cncc(N[C@@H](CO)c4ccc(Cl)cc4)n3)cc12` as the compound, how does the pIC50 (CDK9/cyclin T1) read?
Its pIC50 is 7.12.
